# Patent publication US20230093099A1, “COMPOUNDS AND METHODS OF TREATING CANCERS” (CULLGEN (SHANGHAI), INC., priority 2019, published 2023)
# System: RS4;11 cells
# Experiment: Cell viability assay (CellTiter-Glo) in RS4;11 cells
# Assay type: cell-based
# Settings: Homo sapiens, 72 h; RS4;11 cells; cell viability, 3 days, CellTiter-Glo; read-out: IC50
# Method in brief: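 Three-day compound treatment of RS4;11 ALL cells (5000/well, 3-fold dilution series of 8 or 12 points), with IC50 from a nonlinear least-squares fit to CellTiter-Glo viability data.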
row,IC50,Compound
1,> 10 µM,"O=C(CN1CCC(n2cc(-c3cnc4cccc(-c5cc(F)c(CN6CCOCC6)c(F)c5)c4n3)cn2)CC1)NCCOCCOCCOCCNc1cccc2c1C(=O)N(C1CCC(=O)NC1=O)C2=O (stereo not shown) [JA-141, 2-[4-[4-[8-[3,5-Difluoro-4-(morpholinomethyl)phenyl]quinoxalin-2-yl]pyrazol-1-yl]-1-piperidyl]-N-[2-[2-[2-[2-[[2-(2,6-dioxo-3-piperidyl)-1,3-dioxo-isoindolin-4-yl]amino]ethoxy]ethoxy]ethoxy]ethyl]acetamide]"
2,1.26 µM,"O=C1CCC(N2C(=O)c3cccc(NCCOCCC(=O)N4CCC(n5cc(-c6cnc7cccc(-c8cc(F)c(CN9CCOCC9)c(F)c8)c7n6)cn5)CC4)c3C2=O)C(=O)N1 (stereo not shown) [JA-045, 4-[2-[3-[4-[4-[8-[3,5-Difluoro-4-(morpholinomethyl)phenyl]quinoxalin-2-yl]pyrazol-1-yl]-1-piperidyl]-3-oxo-propoxy]ethylamino]-2-(2,6-dioxo-3-piperidyl)isoindoline-1,3-dione]"
3,> 0.5 µM,"Cn1c(=O)n(C2CCC(=O)NC2=O)c2ccc(NCCCCCCC(=O)N3CCC(n4cc(-c5cnc6cccc(-c7cc(F)c(CN8CCOCC8)c(F)c7)c6n5)cn4)CC3)cc21 (stereo not shown) [JA-289, 3-(5-((7-(4-(4-(8-(3,5-Difluoro-4-(morpholinomethyl)phenyl)quinoxalin-2-yl)-1H-pyrazol-1-yl)piperidin-1-yl)-7-oxoheptyl)amino)-3-methyl-2-oxo-2,3-dihydro-1H-benzo[d]imidazol-1-yl)piperidine-2,6-dione]"
4,0.0036 µM,"O=C1CCC(N2Cc3cc(OCCCCCC(=O)N4CCC(n5cc(-c6cnc7cccc(-c8cc(F)c(CN9CCOCC9)c(F)c8)c7n6)cn5)CC4)ccc3C2=O)C(=O)N1 (stereo not shown) [JA-263, 3-(5-((6-(4-(4-(8-(3,5-difluoro-4-(morpholinomethyl)phenyl)quinoxalin-2-yl)-1H-pyrazol-1-yl)piperidin-1-yl)-6-oxohexyl)oxy)-1-oxoisoindolin-2-yl)piperidine-2,6-dione]"
5,> 10 µM,"O=C1CCC(N2Cc3ccc(C#CCCCCC(=O)N4CCC(n5cc(-c6cnc7cccc(-c8cc(F)c(CN9CCOCC9)c(F)c8)c7n6)cn5)CC4)cc3C2=O)C(=O)N1 (stereo not shown) [JA-259, 3-(6-(7-(4-(4-(8-(3,5-Difluoro-4-(morpholinomethyl)phenyl)quinoxalin-2-yl)-1H-pyrazol-1-yl)piperidin-1-yl)-7-oxohept-1-yn-1-yl)-1-oxoisoindolin-2-yl)piperidine-2,6-dione]"
6,> 0.5 µM,"Cn1c(=O)n(C2CCC(=O)NC2=O)c2ccc(NCCCCCCC(=O)N3CCN(c4ccc(Nc5nc6cccc(-c7ccc(S(C)(=O)=O)cc7)n6n5)cc4)CC3)cc21 (stereo not shown) [JA-293, 3-(3-Methyl-5-((7-(4-(4-((5-(4-(methylsulfonyl)phenyl)-[1,2,4]triazolo[1,5-a]pyridin-2-yl)amino)phenyl)piperazin-1-yl)-7-oxoheptyl)amino)-2-oxo-2,3-dihydro-1H-benzo[d]imidazol-1-yl)piperidine-2,6-dione]"
7,0.849 µM,"Cc1cnc(Nc2ccc(N3CCN(C(=O)CCOCCOCCOCCOCCNc4ccc5c(c4)C(=O)N(C4CCC(=O)NC4=O)C5=O)CC3)cc2)nc1Nc1cccc(S(=O)(=O)NC(C)(C)C)c1 (stereo not shown) [JA-235, N-(tert-butyl)-3-((2-((4-(4-(1-((2-(2,6-dioxopiperidin-3-yl)-1,3-dioxoisoindolin-5-yl)amino)-3,6,9,12-tetraoxapentadecan-15-oyl)piperazin-1-yl)phenyl)amino)-5-methylpyrimidin-4-yl)amino)benzenesulfonamide]"
8,9.99 µM,"O=C1CCC(N2C(=O)c3ccc(NCCOCCOCCOCCC(=O)N4CCC(n5cc(-c6cnc7cccc(-c8cc(F)c(CN9CCOCC9)c(F)c8)c7n6)cn5)CC4)cc3C2=O)C(=O)N1 (stereo not shown) [JA-184, 5-((2-(2-(2-(3-(4-(4-(8-(3,5-Difluoro-4-(morpholinomethyl)phenyl)quinoxalin-2-yl)-1H-pyrazol-1-yl)piperidin-1-yl)-3-oxopropoxy)ethoxy)ethoxy)ethyl)amino)-2-(2,6-dioxopiperidin-3-yl)isoindoline-1,3-dione]"
9,0.287 µM,"Cc1cnc(Nc2ccc(N3CCN(C(=O)CCOCCOCCNc4ccc5c(c4)C(=O)N(C4CCC(=O)NC4=O)C5=O)CC3)cc2)nc1Nc1cccc(S(=O)(=O)NC(C)(C)C)c1 (stereo not shown) [JA-233, N-(tert-butyl)-3-((2-((4-(4-(3-(2-(2-((2-(2,6-dioxopiperidin-3-yl)-1,3-dioxoisoindolin-5-yl)amino)ethoxy)ethoxy)propanoyl)piperazin-1-yl)phenyl)amino)-5-methylpyrimidin-4-yl)amino)benzenesulfonamide]"
10,> 10 µM,"Cc1cnc(Nc2ccc(N3CCN(C(=O)CCOCCOCCOCCC(=O)N[C@H](C(=O)N4C[C@H](O)C[C@H]4C(=O)NCc4ccc(-c5scnc5C)cc4)C(C)(C)C)CC3)cc2)nc1Nc1cccc(S(=O)(=O)NC(C)(C)C)c1 [JA-034, (2S,4R)-1-((S)-2-(tert-Butyl)-16-(4-(4-((4-((3-(N-(tert-butyl)sulfamoyl)phenyl)amino)-5-methylpyrimidin-2-yl)amino)phenyl)piperazin-1-yl)-4,16-dioxo-7,10,13-trioxa-3-azahexadecanoyl)-4-hydroxy-N-(4-(4-methylthiazol-5-yl)benzyl)pyrrolidine-2-carboxamide]"
11,> 0.5 µM,"CS(=O)(=O)c1ccc(-c2cccc3nc(Nc4ccc(N5CCN(C(=O)CCCCCCn6c(=O)n(C7CCC(=O)NC7=O)c7ccccc76)CC5)cc4)nn23)cc1 (stereo not shown) [JA-281, 3-(3-(7-(4-(4-((5-(4-(Methylsulfonyl)phenyl)-[1,2,4]triazolo[1,5-a]pyridin-2-yl)amino)phenyl)piperazin-1-yl)-7-oxoheptyl)-2-oxo-2,3-dihydro-1H-benzo[d]imidazol-1-yl)piperidine-2,6-dione]"
12,> 10 µM,"Cc1cnc(Nc2ccc(N3CCN(C(=O)CCOCCOCCC(=O)N[C@H](C(=O)N4C[C@H](O)C[C@H]4C(=O)NCc4ccc(-c5scnc5C)cc4)C(C)(C)C)CC3)cc2)nc1Nc1cccc(S(=O)(=O)NC(C)(C)C)c1 [JA-033, (2S,4R)-1-((S)-2-(3-(2-(3-(4-(4-((4-((3-(N-(tert-Butyl)sulfamoyl)phenyl)amino)-5-methylpyrimidin-2-yl)amino)phenyl)piperazin-1-yl)-3-oxopropoxy)ethoxy)propanamido)-3,3-dimethylbutanoyl)-4-hydroxy-N-(4-(4-methylthiazol-5-yl)benzyl)pyrrolidine-2-carboxamide]"
13,1.44 µM,"CS(=O)(=O)c1ccc(-c2cccc3nc(Nc4ccc(N5CCN(CC(=O)NCCNc6cccc7c6C(=O)N(C6CCC(=O)NC6=O)C7=O)CC5)cc4)nn23)cc1 (stereo not shown) [JA-117, N-(2-((2-(2,6-Dioxopiperidin-3-yl)-1,3-dioxoisoindolin-4-yl)amino)ethyl)-2-(4-(4-((5-(4-(methylsulfonyl)phenyl)-[1,2,4]triazolo[1,5-a]pyridin-2-yl)amino)phenyl)piperazin-1-yl)acetamide]"
14,1.24 µM,"CS(=O)(=O)c1ccc(-c2cccc3nc(Nc4ccc(N5CCN(CC(=O)NCCNc6ccc7c(c6)C(=O)N(C6CCC(=O)NC6=O)C7=O)CC5)cc4)nn23)cc1 (stereo not shown) [JA-207, N-(2-((2-(2,6-Dioxopiperidin-3-yl)-1,3-dioxoisoindolin-5-yl)amino)ethyl)-2-(4-(4-((5-(4-(methylsulfonyl)phenyl)-[1,2,4]triazolo[1,5-a]pyridin-2-yl)amino)phenyl)piperazin-1-yl)acetamide]"
15,9.38 µM,"Cc1cnc(Nc2ccc(N3CCN(CC(=O)NCCOCCOCCOCCOCCOCCC(=O)N[C@H](C(=O)N4C[C@H](O)C[C@H]4C(=O)NCc4ccc(-c5scnc5C)cc4)C(C)(C)C)CC3)cc2)nc1Nc1cccc(S(=O)(=O)NC(C)(C)C)c1 [JA-223, (2S,4R)-1-((S)-23-(tert-butyl)-1-(4-(4-((4-((3-(N-(tert-butyl)sulfamoyl)phenyl)amino)-5-methylpyrimidin-2-yl)amino)phenyl)piperazin-1-yl)-2,21-dioxo-6,9,12,15,18-pentaoxa-3,22-diazatetracosan-24-oyl)-4-hydroxy-N-(4-(4-methylthiazol-5-yl)benzyl)pyrrolidine-2-carboxamide]"
16,> 10 µM,"Cc1ncsc1-c1ccc(CNC(=O)[C@@H]2C[C@@H](O)CN2C(=O)[C@@H](NC(=O)CCCCCNC(=O)CN2CCC(n3cc(-c4cnc5cccc(-c6cc(F)c(CN7CCOCC7)c(F)c6)c5n4)cn3)CC2)C(C)(C)C)cc1 [JA-164, (2S,4R)-1-((S)-2-(6-(2-(4-(4-(8-(3,5-Difluoro-4-(morpholinomethyl)phenyl)quinoxalin-2-yl)-1H-pyrazol-1-yl)piperidin-1-yl)acetamido)hexanamido)-3,3-dimethylbutanoyl)-4-hydroxy-N-(4-(4-methylthiazol-5-yl)benzyl)pyrrolidine-2-carboxamide]"
17,> 10 µM,"Cc1cnc(Nc2ccc(N3CCN(C(=O)CCCCCNc4cccc5c4C(=O)N(C4CCC(=O)NC4=O)C5=O)CC3)cc2)nc1Nc1cccc(S(=O)(=O)NC(C)(C)C)c1 (stereo not shown) [JA-007, N-(tert-Butyl)-3-((2-((4-(4-(6-((2-(2,6-dioxopiperidin-3-yl)-1,3-dioxoisoindolin-4-yl)amino)hexanoyl)piperazin-1-yl)phenyl)amino)-5-methylpyrimidin-4-yl)amino)benzenesulfonamide]"
18,> 10 µM,"Cc1ncsc1-c1ccc(CNC(=O)[C@@H]2C[C@@H](O)CN2C(=O)[C@@H](NC(=O)CCCCCCCCCC(=O)N2CCC(n3cc(-c4cnc5cccc(-c6cc(F)c(CN7CCOCC7)c(F)c6)c5n4)cn3)CC2)C(C)(C)C)cc1 [JA-059, (2S,4R)-1-[(2S)-2-[[11-[4-[4-[8-[3,5-Difluoro-4-(morpholinomethyl)phenyl]quinoxalin-2-yl]pyrazol-1-yl]-1-piperidyl]-11-oxo-undecanoyl]amino]-3,3-dimethyl-butanoyl]-4-hydroxy-N-[[4-(4-methylthiazol-5-yl)phenyl]methyl]pyrrolidine-2-carboxamide]"
19,0.176 µM,"CS(=O)(=O)c1ccc(-c2cccc3nc(Nc4ccc(N5CCN(C(=O)CCCCCNc6ccc7c(c6)CN(C6CCC(=O)NC6=O)C7=O)CC5)cc4)nn23)cc1 (stereo not shown) [JA-275, 3-(5-((6-(4-(4-((5-(4-(Methylsulfonyl)phenyl)-[1,2,4]triazolo[1,5-a]pyridin-2-yl)amino)phenyl)piperazin-1-yl)-6-oxohexyl)amino)-1-oxoisoindolin-2-yl)piperidine-2,6-dione]"
